From article PMC10169810, “Ligand-induced activation and G protein coupling of prostaglandin F2α receptor” (Nature Communications, 2023)
Several values for one entry are separate records, joined by “and”; a condition that tells them apart may be missing. Equal values may be shown once. Entries after “also recorded” stand apart in the source; their conditions may differ.

Columns and labels:
Assay type in all cases: cell-based
FP Q250A = target: T1, FP Q250A (Homo sapiens, UniProt P43088, Q250A); test: IP-One accumulation assay, FP Q250A mutant; conditions: Q250A mutant vs WT FP
T1 construct: expressed in transfected cells; host or cells: AD293 cells
Method: (§1) IP-One production was measured using the IP-One HTRF kit (Cisbio)[50]. Briefly, AD293 cells (Agilent) were grown to a density of 400,000–500,000 cells per mL and then […] with separate plasmids at a suitable concentration. The culture was collected by centrifugation 24 h after incubation at 37 °C in 5% CO2 with a Stimulation Buffer. The cell suspension was then dispensed in a white 384-well plate at a volume of 7 μl per well before adding 7 μl of ligands. The mixture was incubated for 1 h at 37 °C. IP-One-d2 and anti-IP-One Cryptate dissolved in Lysis Buffer (3 μl each) were subsequently added and incubated for 15-30 min at room temperature before measurement. Intracellular IP-One measurement was carried out with the IP-One HTRF kit and EnVision multi-plate reader (PerkinElmer) according to the manufacturer’s instructions. Data were normalized to the baseline response of the ligand. pEC50 Emin, and Emax for each curve were calculated by GraphPad Prism 8.0. ∆pEC50 equals pEC50 of agonists to specific Mutant minus pEC50 of agonists to WT. Data are presented as mean values ± SEM; n = 3 independent samples; n.s. no significant; *p < 0.05; **p < 0.01; ***p < 0.001.

FP L213A = target: T2, FP L213A (Homo sapiens, UniProt P43088, L213A); test: IP-One accumulation assay, FP L213A mutant; conditions: L213A mutant vs WT FP
T2 construct: Flag; expressed in transfected cells; host or cells: AD293 cells
Method: as §1

FP mutant of C134 = target: T3, FP mutant of C134 (Homo sapiens, UniProt P43088, C134A); test: IP-One accumulation assay, FP C134 mutant; conditions: C134 mutant vs WT FP
T3 construct: expressed in transfected cells; host or cells: AD293 cells
Method: as §1

FP Q297A = target: T4, FP Q297A (Homo sapiens, UniProt P43088, Q297A); test: IP-One accumulation assay, FP Q297A mutant; conditions: Q297A mutant vs WT FP; IP1 accumulation, AD293 cells; single values of n = 3 independent samples
T4 construct: Flag; expressed in transfected cells; host or cells: AD293 cells
Method: as §1

FP W262A = target: T5, FP W262A (Homo sapiens, UniProt P43088, W262A); test: IP-One accumulation assay, FP W262A mutant; conditions: W262 to alanine vs WT FP
T5 construct: Flag; expressed in transfected cells; host or cells: AD293 cells
Method: as §1

human FP (WT) = target: T6, human FP (WT) (Homo sapiens, UniProt P43088); test: IP-One (IP1) accumulation assay, wild-type FP
T6 construct: Flag; expressed in transfected cells; host or cells: AD293 cells
Method: as §1

FP Y92A = target: T7, FP Y92A (Homo sapiens, UniProt P43088, Y92A); test: IP-One accumulation assay, FP Y92A mutant; conditions: Y92 mutant (alanine) vs WT FP
T7 construct: Flag; expressed in transfected cells; host or cells: AD293 cells
Method: as §1

FP S118A = target: T8, FP S118A (Homo sapiens, UniProt P43088, S118A); test: IP-One accumulation assay, FP S118A mutant; conditions: S118A mutant vs WT FP; IP1 accumulation, AD293 cells; single values of n = 3 independent samples
T8 construct: Flag; expressed in transfected cells; host or cells: AD293 cells
Method: as §1

FP M115A = target: T9, FP M115A (Homo sapiens, UniProt P43088, M115A); test: IP-One accumulation assay, FP M115A mutant
T9 construct: Flag; expressed in transfected cells; host or cells: AD293 cells
Method: as §1

FP S33A = target: T10, FP S33A (Homo sapiens, UniProt P43088, S33A); test: IP-One accumulation assay, FP S33A mutant
T10 construct: Flag; expressed in transfected cells; host or cells: AD293 cells
Method: as §1

FP I290A = target: T11, FP I290A (Homo sapiens, UniProt P43088); test: IP-One accumulation assay, FP I290A mutant; conditions: L290 to alanine vs WT FP
T11 construct: Flag; expressed in transfected cells; host or cells: AD293 cells
Method: as §1

FP L123A = target: T12, FP L123A (Homo sapiens, UniProt P43088, L123A); test: IP-One accumulation assay, FP L123A mutant; conditions: L123A mutant vs WT FP
T12 construct: Flag; expressed in transfected cells; host or cells: AD293 cells
Method: as §1

FP F205A = target: T13, FP F205A (Homo sapiens, UniProt P43088, F205A); test: IP-One accumulation assay, FP F205A mutant; conditions: F205 to alanine vs WT FP
T13 construct: Flag; expressed in transfected cells; host or cells: AD293 cells
Method: as §1

FP T294A = target: T14, FP T294A (Homo sapiens, UniProt P43088, T294A); test: IP-One accumulation assay, FP T294A mutant
T14 construct: Flag; expressed in transfected cells; host or cells: AD293 cells
Method: as §1

FP F265A = target: T15, FP F265A (Homo sapiens, UniProt P43088, F265A); test: IP-One accumulation assay, FP F265A mutant
T15 construct: Flag; expressed in transfected cells; host or cells: AD293 cells
Method: as §1

FP R291A = target: T16, FP R291A (Homo sapiens, UniProt P43088, R291A); test: IP-One accumulation assay, FP R291A mutant
T16 construct: Flag; expressed in transfected cells; host or cells: AD293 cells
Method: as §1

FP R133A = target: T17, FP R133A (Homo sapiens, UniProt P43088, R133A); test: IP-One accumulation assay, FP R133A mutant; conditions: for IP1 accumulation response to PGF2α (dose-response source data): FP R133A, replicate values
T17 construct: expressed in transfected cells; host or cells: AD293 cells
Method: as §1

FP T184A = target: T18, FP T184A (Homo sapiens, UniProt P43088, T184A); test: IP-One accumulation assay, FP T184A mutant; conditions: T184 mutant (alanine) vs WT FP
T18 construct: Flag; expressed in transfected cells; host or cells: AD293 cells
Method: as §1

FP mutant of E132 = target: T19, FP mutant of E132 (Homo sapiens, UniProt P43088, E132A); test: IP-One accumulation assay, FP E132 mutant; conditions: E132 mutant vs WT FP
T19 construct: Flag; expressed in transfected cells; host or cells: AD293 cells
Method: as §1

FP H81A = target: T20, FP H81A (Homo sapiens, UniProt P43088, H81A); test: IP-One accumulation assay, FP H81A mutant; conditions: H81 mutated to alanine vs WT FP
T20 construct: Flag; expressed in transfected cells; host or cells: AD293 cells
Method: as §1

FP R308A = target: T21, FP R308A (Homo sapiens, UniProt P43088, R308A); test: IP-One accumulation assay, FP R308A mutant; conditions: R308A mutant vs WT FP
T21 construct: expressed in transfected cells; host or cells: AD293 cells
Method: as §1

T10 sequence (P43088 whole entry S33A): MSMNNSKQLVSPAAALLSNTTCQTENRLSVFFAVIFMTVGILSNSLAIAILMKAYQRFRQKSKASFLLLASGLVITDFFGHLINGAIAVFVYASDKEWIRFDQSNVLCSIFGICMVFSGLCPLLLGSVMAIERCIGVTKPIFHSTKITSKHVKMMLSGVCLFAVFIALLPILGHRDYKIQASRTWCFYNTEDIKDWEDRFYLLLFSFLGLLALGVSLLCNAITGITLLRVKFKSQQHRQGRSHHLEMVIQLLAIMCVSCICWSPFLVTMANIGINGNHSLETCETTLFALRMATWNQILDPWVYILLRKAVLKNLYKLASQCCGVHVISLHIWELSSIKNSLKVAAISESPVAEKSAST
T17 sequence (P43088 whole entry R133A): as the sequence (P43088 whole entry S33A) above, with A33S, R133A counted along it
T8 sequence (P43088 whole entry S118A): as the sequence (P43088 whole entry S33A) above, with A33S, S118A counted along it
T9 sequence (P43088 whole entry M115A): as the sequence (P43088 whole entry S33A) above, with A33S, M115A counted along it
T15 sequence (P43088 whole entry F265A): as the sequence (P43088 whole entry S33A) above, with A33S, F265A counted along it
T6 sequence (P43088 whole entry): as the sequence (P43088 whole entry S33A) above, with A33S counted along it
T14 sequence (P43088 whole entry T294A): as the sequence (P43088 whole entry S33A) above, with A33S, T294A counted along it
T16 sequence (P43088 whole entry R291A): as the sequence (P43088 whole entry S33A) above, with A33S, R291A counted along it
T4 sequence (P43088 whole entry Q297A): as the sequence (P43088 whole entry S33A) above, with A33S, Q297A counted along it
T18 sequence (P43088 whole entry T184A): as the sequence (P43088 whole entry S33A) above, with A33S, T184A counted along it
T11 sequence (P43088 whole entry L290A): as the sequence (P43088 whole entry S33A) above, with A33S, L290A counted along it
T20 sequence (P43088 whole entry H81A): as the sequence (P43088 whole entry S33A) above, with A33S, H81A counted along it
T21 sequence (P43088 whole entry R308A): as the sequence (P43088 whole entry S33A) above, with A33S, R308A counted along it
T2 sequence (P43088 whole entry L213A): as the sequence (P43088 whole entry S33A) above, with A33S, L213A counted along it
T1 sequence (P43088 whole entry Q250A): as the sequence (P43088 whole entry S33A) above, with A33S, Q250A counted along it
T7 sequence (P43088 whole entry Y92A): as the sequence (P43088 whole entry S33A) above, with A33S, Y92A counted along it
T5 sequence (P43088 whole entry W262A): as the sequence (P43088 whole entry S33A) above, with A33S, W262A counted along it
T3 sequence (P43088 whole entry C134A): as the sequence (P43088 whole entry S33A) above, with A33S, C134A counted along it
T13 sequence (P43088 whole entry F205A): as the sequence (P43088 whole entry S33A) above, with A33S, F205A counted along it
T12 sequence (P43088 whole entry L123A): as the sequence (P43088 whole entry S33A) above, with A33S, L123A counted along it
T19 sequence (P43088 whole entry E132A): as the sequence (P43088 whole entry S33A) above, with A33S, E132A counted along it

effect of mutation on agonist activity (in words) (FP Q250A): loss of PGF2α activity
effect of mutation on agonist potency (in words) (FP L213A): decreased potency
effect of mutation on agonist activity (in words) (FP mutant of C134): decreased PGF2α activity
∆pEC50 (pEC50 of agonist to mutant minus pEC50 to WT) (FP Q297A): -1.9 and -1.8
effect of mutation on agonist affinity / induced activation (in words) (FP W262A): significantly impaired the affinity
IP1 accumulation response to PGF2α (dose-response source data) (human FP (WT); log[PGF2α] -5, replicate values): 101.79 and 97.30 and 100.89
IP1 accumulation response to PGF2α (dose-response source data) (human FP (WT); log[PGF2α] -6, replicate values): 98.67 and 93.94 and 92.75
IP1 accumulation response to PGF2α (dose-response source data) (human FP (WT); log[PGF2α] -7, replicate values): 95.13 and 96.40 and 98.46
IP1 accumulation response to PGF2α (dose-response source data) (human FP (WT); log[PGF2α] -8, replicate values): 91.30 and 99.44 and 87.48
IP1 accumulation response to PGF2α (dose-response source data) (human FP (WT); log[PGF2α] -9, replicate values): 86.14 and 76.33 and 80.44
IP1 accumulation response to PGF2α (dose-response source data) (human FP (WT); log[PGF2α] -10, replicate values): 72.71 and 62.76 and 60.52
IP1 accumulation response to PGF2α (dose-response source data) (human FP (WT); log[PGF2α] -11, replicate values): 49.52 and 56.92 and 52.06
IP1 accumulation response to PGF2α (dose-response source data) (human FP (WT); log[PGF2α] -14, replicate values): 42.81 and 48.67 and 43.43
effect of mutation on agonist activity / potency (in words) (FP Y92A): decreased activity
∆pEC50 (pEC50 of agonist to mutant minus pEC50 to WT) (FP S118A): 0.3 and 0.0 and 0.2
∆pEC50 (pEC50 of agonist to mutant minus pEC50 to WT) (FP M115A; M115A mutant vs WT FP, IP1 accumulation, AD293 cells, single values of n = 3 independent samples): -2.0 and -2.1 and -1.9
decrease of affinity by mutation (FP M115A; M115 mutated to alanine vs WT FP): approximately 100 fold
∆pEC50 (pEC50 of agonist to mutant minus pEC50 to WT) (FP S33A; S33A mutant vs WT FP, IP1 accumulation, AD293 cells, single values of n = 3 independent samples): -1.0 and -1.1 and -0.8
effect of mutation on agonist affinity / potency (in words) (FP S33A; S33 to alanine vs WT FP): significantly impaired the affinity
effect of mutation on agonist affinity (in words) (FP I290A): significantly impaired the affinity
effect of mutation on agonist potency (in words) (FP L123A): decreased potency
effect of mutation on agonist affinity (in words) (FP F205A): significantly impaired the affinity
∆pEC50 (pEC50 of agonist to mutant minus pEC50 to WT) (FP T294A; T294A mutant vs WT FP, IP1 accumulation, AD293 cells, single values of n = 3 independent samples): -2.2 and -2.3 and -2.0
effect of mutation on agonist affinity / potency (in words) (FP T294A; T294 to alanine vs WT FP): significantly impaired the affinity
∆pEC50 (pEC50 of agonist to mutant minus pEC50 to WT) (FP F265A; F265A mutant vs WT FP, IP1 accumulation, AD293 cells, single values of n = 3 independent samples): -2.8 and -2.7
effect of mutation on agonist affinity (in words) (FP F265A; F265 to alanine vs WT FP): significantly impaired the affinity
∆pEC50 (pEC50 of agonist to mutant minus pEC50 to WT) (FP R291A; R291A mutant vs WT FP, IP1 accumulation, AD293 cells, single values of n = 3 independent samples): -2.6 and -2.4 and -2.5
effect of mutation on agonist activity / potency (in words) (FP R291A; R291 mutant (alanine) vs WT FP): decreased activity
IP1 accumulation response to PGF2α (dose-response source data) (FP R133A; log[PGF2α] -5): 21.57 and 17.44 and 18.01
IP1 accumulation response to PGF2α (dose-response source data) (FP R133A; log[PGF2α] -6): 20.73 and 14.37 and 13.23
IP1 accumulation response to PGF2α (dose-response source data) (FP R133A; log[PGF2α] -7): 14.89 and 14.23 and 16.03
IP1 accumulation response to PGF2α (dose-response source data) (FP R133A; log[PGF2α] -8): 16.86 and 14.19 and 10.91
IP1 accumulation response to PGF2α (dose-response source data) (FP R133A; log[PGF2α] -9): 17.57 and 19.43 and 13.59
IP1 accumulation response to PGF2α (dose-response source data) (FP R133A; log[PGF2α] -10): 9.93 and 11.01 and 11.54
IP1 accumulation response to PGF2α (dose-response source data) (FP R133A; log[PGF2α] -11): 5.43 and 6.41 and 3.41
IP1 accumulation response to PGF2α (dose-response source data) (FP R133A; log[PGF2α] -14): 0.27 and 6.69 and 6.06
effect of mutation on agonist activity / potency (in words) (FP T184A): decreased activity
effect of mutation on agonist activity (in words) (FP mutant of E132): decreased PGF2α activity
reduction of activity to FP by mutation (FP H81A): over 1000 folds
effect of mutation on agonist activity (in words) (FP R308A): loss of PGF2α activity
Compound: CCCCC[C@H](O)/C=C/[C@@H]1[C@@H](C/C=C\CCCC(=O)O)[C@@H](O)C[C@H]1O [PGF2α, Prostaglandin F2α]
effect of mutation on agonist activity (in words) (FP R133A; R133 / R133A mutant vs WT FP): decreased PGF2α activity; also recorded: loss of PGF2α activity
